Target: human TLR7 (Homo sapiens (Human), UniProt Q9NYK1)
Assay: Reporter Gene Assay (HEK293 stably transfected with human TLR7 and NF-kB-driven luciferase reporter)
Assay type: cell-based
Conditions: HEK293 cells stably transfected with human TLR7 and pNifty-Luciferase; 7 hours incubation; EC50 relative to the activity of resiquimod set to 100%
Experimental: As a control assay, normal Hek293 transfected with pNifty-Luc were used. […] Bright-Glo™ Luciferase assay buffer and substrate were supplied by Promega #E263B and #E264B (assay substrate and buffer respectively). 384 well clear-bottom plates were supplied by Greiner bio-one (#789163-G) and were custom bar-coded plates.
Cells were plated at 25,000 cells/well in 384-well plates in a final volume of 50 μl of media. Cells were allowed to adhere to the plates after overnight (18 hours) culture at 37° C. and 5% CO2. Serially diluted experimental and positive control compounds were then dispensed to each well and incubated for 7 hours at 37° C. and 5% CO2. Cells stimulated with DMSO alone also serve as negative controls. After the incubation, 30 μl of the pre-mix assay buffer and substrate buffer were added to each well according to manufacturer's instructions. The luminescence signal was read on a CLIPR machine with an integration time of 20 seconds per plate.

human TLR7, sequence (Q9NYK1 27-1049): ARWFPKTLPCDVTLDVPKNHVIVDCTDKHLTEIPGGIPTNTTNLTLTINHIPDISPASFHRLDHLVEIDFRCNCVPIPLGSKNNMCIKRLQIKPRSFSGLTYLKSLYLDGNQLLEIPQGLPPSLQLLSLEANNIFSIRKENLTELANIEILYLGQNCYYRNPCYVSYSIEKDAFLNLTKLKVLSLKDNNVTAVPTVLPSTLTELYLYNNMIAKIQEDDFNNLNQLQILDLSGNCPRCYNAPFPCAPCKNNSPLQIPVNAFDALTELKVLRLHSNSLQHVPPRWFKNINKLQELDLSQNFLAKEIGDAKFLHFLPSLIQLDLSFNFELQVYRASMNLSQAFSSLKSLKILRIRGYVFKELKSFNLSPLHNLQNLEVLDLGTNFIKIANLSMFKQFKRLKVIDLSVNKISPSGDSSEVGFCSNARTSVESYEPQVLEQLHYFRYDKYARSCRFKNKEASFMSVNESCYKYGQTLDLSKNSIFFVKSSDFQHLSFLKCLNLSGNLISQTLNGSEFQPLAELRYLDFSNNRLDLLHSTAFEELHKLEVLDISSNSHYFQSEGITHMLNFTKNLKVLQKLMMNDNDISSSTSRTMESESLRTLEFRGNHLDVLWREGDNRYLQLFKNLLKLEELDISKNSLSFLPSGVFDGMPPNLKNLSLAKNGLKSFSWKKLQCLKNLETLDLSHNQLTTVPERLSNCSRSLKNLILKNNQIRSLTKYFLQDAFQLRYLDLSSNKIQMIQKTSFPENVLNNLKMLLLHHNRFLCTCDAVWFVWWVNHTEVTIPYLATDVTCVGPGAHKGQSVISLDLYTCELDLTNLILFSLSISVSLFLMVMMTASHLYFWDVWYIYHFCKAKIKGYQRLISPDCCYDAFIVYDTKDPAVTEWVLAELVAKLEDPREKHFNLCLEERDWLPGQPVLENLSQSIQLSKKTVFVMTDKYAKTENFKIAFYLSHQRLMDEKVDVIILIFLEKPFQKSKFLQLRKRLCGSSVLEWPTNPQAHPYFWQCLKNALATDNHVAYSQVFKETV

SMILES	EC50 [µM]
CCCCCNc1nc(N)nc2ccn(Cc3ccc(C(=O)OCCOCCN(C)C)cc3OC)c12 [Example 3, 2-(2-(dimethylamino)ethoxy)ethyl 4-((2-amino-4-(pentylamino)-5H-pyrrolo[3,2-d]pyrimidin-5-yl)methyl)-3-methoxybenzoate]	0.02
CCCCCNc1nc(N)nc2ccn(Cc3cc(OCC(=O)OCCN4CCNCC4)ccc3OC)c12 [Example 27, 2-(piperazin-1-yl)ethyl 2-(3-{[2-amino-4-(pentylamino)-5H-pyrrolo[3,2-d]pyrimidin-5-yl]methyl}-4-methoxyphenoxy)acetate]	0.5
CCCCCNc1nc(N)nc2ccn(Cc3ccc(CC(=O)OCC(=O)N(CCC)CCC)cc3OC)c12 [Example 19, 2-(dipropylcarbamoyl)methyl 2-(4-{[2-amino-4-(pentylamino)-5H-pyrrolo[3,2-d]pyrimidin-5-yl]methyl}-3-methoxyphenyl)acetate]	0.2
CCCCCNc1nc(N)nc2ccn(Cc3ccc(CCC(=O)OCC(=O)N4CCOCC4)cc3OC)c12 [Example 11, 2-(morpholin-4-yl)-2-oxoethyl 3-(4-{[2-amino-4-(pentylamino)-5H-pyrrolo[3,2-d]pyrimidin-5-yl]methyl}-3-methoxyphenyl)propanoate]	0.02
CCCCCNc1nc(N)nc2ccn(Cc3cc(OCC(=O)OCCN(C)C)ccc3OC)c12 [Example 26, 2-(dimethylamino)ethyl 2-(3-{[2-amino-4-(pentylamino)-5H-pyrrolo[3,2-d]pyrimidin-5-yl]methyl}-4-methoxyphenoxy)acetate]	0.3
CCCCCNc1nc(N)nc2ccn(Cc3cc(CCC(=O)OCC)ccc3OC)c12 [Example 6, ethyl 3-(3-((2-amino-4-(pentylamino)-5H-pyrrolo[3,2-d]pyrimidin-5-yl)methyl)-4-methoxyphenyl)propanoate]	0.03
CCCCCNc1nc(N)nc2ccn(Cc3ccc(CC(=O)OCC(=O)N(C)C)cc3OC)c12 [Example 20, 2-(dimethylamino)-2-oxoethyl 2-(4-((2-amino-4-(pentylamino)-5H-pyrrolo[3,2-d]pyrimidin-5-yl)methyl)-3-methoxyphenyl)acetate]	0.08
CCCCCNc1nc(N)nc2ccn(Cc3cc(C(=O)OC)ccc3OC)c12 [Example 4, methyl 3-((2-amino-4-(pentylamino)-5H-pyrrolo[3,2-d]pyrimidin-5-yl)methyl)-4-methoxybenzoate]	< 0.005
CCCC[C@@H](CO)Nc1nc(N)nc2ccn(Cc3ccc(CCC(=O)OCC(=O)N4CCOCC4)cc3OC)c12 [Example 15, (S)-2-morpholino-2-oxoethyl 3-(4-((2-amino-4-((1-hydroxyhexan-2-yl)amino)-5H-pyrrolo[3,2-d]pyrimidin-5-yl)methyl)-3-methoxyphenyl)propanoate]	0.02
CCCCCNc1nc(N)nc2ccn(Cc3cc(CCC(=O)OCC(=O)N4CCOCC4)ccc3OC)c12 [Example 17, 2-(morpholin-4-yl)-2-oxoethyl 3-(3-{[2-amino-4-(pentylamino)-5H-pyrrolo[3,2-d]pyrimidin-5-yl]methyl}-4-methoxyphenyl)propanoate]	0.05
CCCCCNc1nc(N)nc2ccn(Cc3cc(/C=C/C(=O)OCC(=O)N4CCOCC4)ccc3OC)c12 [Example 16, 2-(morpholin-4-yl)-2-oxoethyl (2E)-3-(3-{[2-amino-4-(pentylamino)-5H-pyrrolo[3,2-d]pyrimidin-5-yl]methyl}-4-methoxyphenyl)prop-2-enoate]	< 0.005
CCCCCNc1nc(N)nc2ccn(Cc3ccc(CC(=O)OCCN4CCN(C)CC4)cc3OC)c12 [Example 21, 2-(4-methylpiperazin-1-yl)ethyl 2-(4-{[2-amino-4-(pentylamino)-5H-pyrrolo[3,2-d]pyrimidin-5-yl]methyl}-3-methoxyphenyl)acetate]	< 0.005
CCCCCNc1nc(N)nc2ccn(Cc3cc(OCC(=O)OCCN4CCOCC4)ccc3OC)c12 [Example 28, 2-(morpholin-4-yl)ethyl 2-(3-{[2-amino-4-(pentylamino)-5H-pyrrolo[3,2-d]pyrimidin-5-yl]methyl}-4-methoxyphenoxy)acetate]	0.4
CCCCCNc1nc(N)nc2ccn(Cc3ccc(CC(=O)OCC(=O)N4CCOCC4)cc3OC)c12 [Example 10, 2-morpholino-2-oxoethyl 2-(4-((2-amino-4-(pentylamino)-5H-pyrrolo[3,2-d]pyrimidin-5-yl)methyl)-3-methoxyphenyl)acetate]	0.006
CCCCCNc1nc(N)nc2ccn(Cc3cc(CC(=O)OCC(=O)N4CCOCC4)ccc3OC)c12 [Example 9, 2-morpholino-2-oxoethyl 2-(3-((2-amino-4-(pentylamino)-5H-pyrrolo[3,2-d]pyrimidin-5-yl)methyl)-4-methoxyphenyl)acetate]	0.01
CCCCCNc1nc(N)nc2ccn(Cc3cc(CN4CCNCC4)ccc3OC)c12 [Example 31, 5-(2-methoxy-5-(piperazin-1-ylmethyl)benzyl)-N4-pentyl-5H-pyrrolo[3,2-d]pyrimidine-2,4-diamine]	0.02
CCCC[C@@H](CO)Nc1nc(N)nc2ccn(Cc3cc(CCC(=O)OCC(=O)N4CCOCC4)ccc3OC)c12 [Example 12, (S)-2-morpholino-2-oxoethyl 3-(3-((2-amino-4-((1-hydroxyhexan-2-yl)amino)-5H-pyrrolo[3,2-d]pyrimidin-5-yl)methyl)-4-methoxyphenyl)propanoate]	0.03
CCCCCNc1nc(N)nc2ccn(Cc3ccc(CC(=O)OCC(=O)OCc4ccccc4)cc3OC)c12 [Example 18, 2-(benzyloxy)-2-oxoethyl 2-(4-{[2-amino-4-(pentylamino)-5H-pyrrolo[3,2-d]pyrimidin-5-yl]methyl}-3-methoxyphenyl)acetate]	0.2
CCCC[C@@H](CO)Nc1nc(N)nc2ccn(Cc3ccc(CN4CCNCC4)cc3OC)c12 [Example 33, (S)-2-((2-amino-5-(2-methoxy-4-(piperazin-1-ylmethyl)benzyl)-5H-pyrrolo[3,2-d]pyrimidin-4-yl)amino)hexan-1-ol]	0.007
CCCCCNc1nc(N)nc2ccn(Cc3cc(CC(=O)OC)ccc3OC)c12 [Example 5, methyl 2-(3-((2-amino-4-(pentylamino)-5H-pyrrolo[3,2-d]pyrimidin-5-yl)methyl)-4-methoxyphenyl)acetate]	0.01
CCCCCNc1nc(N)nc2ccn(Cc3ccc(CC(=O)OCCO)cc3OC)c12 [Example 22, 2-hydroxyethyl 2-(4-{[2-amino-4-(pentylamino)-5H-pyrrolo[3,2-d]pyrimidin-5-yl]methyl}-3-methoxyphenyl)acetate]	< 0.006
CCCCCNc1nc(N)nc2ccn(Cc3ccc(CC(=O)OCCCCN(C)C)cc3OC)c12 [Example 23, 4-(dimethylamino)butyl 2-(4-{[2-amino-4-(pentylamino)-5H-pyrrolo[3,2-d]pyrimidin-5-yl]methyl}-3-methoxyphenyl)acetate]	0.007
CCCCCNc1nc(N)nc2ccn(Cc3ccc(C(=O)OCCN(C)C)cc3OC)c12 [Example 2, 2-(dimethylamino)ethyl 4-((2-amino-4-(pentylamino)-5H-pyrrolo[3,2-d]pyrimidin-5-yl)methyl)-3-methoxybenzoate]	< 0.005
CCCCCNc1nc(N)nc2ccn(Cc3cc(OCC(=O)OCCN4CCN(C)CC4)ccc3OC)c12 [Example 29, 2-(4-methylpiperazin-1-yl)ethyl 2-(3-{[2-amino-4-(pentylamino)-5H-pyrrolo[3,2-d]pyrimidin-5-yl]methyl}-4-methoxyphenoxy)acetate]	0.2

Source: patent publication US10407431B2, “Compounds and compositions as toll-like receptor 7 agonists” (NOVARTIS AG, priority 2014, dated 2019)
